Source: patent US20250042912A1, “NOVEL NON-FLUORINATED QUINOLONE COMPOUND AND USE THEREOF” (priority 2021, published 2025)
Converted amounts (≈) assume the structure as drawn.

How the values were obtained:
[1] = system: Propionibacterium acnes ATCC 6919; experiment: Minimum inhibitory concentration (MIC) assay, Propionibacterium acnes ATCC 6919; assay type: cell-based; details: Cutibacterium acnes, ATCC6919; anaerobic culture 35+/-2°C, 48 hours; read with naked eyes
Experimental: On the day of the experiment, the compound in the flask was dissolved in 100% DMSO until the concentration of mother liquor was 0.4 mg/mL. If the mother liquor was not used on the same day, it was stored at −80° C. for future use. The compound mother liquor and standard antibiotics were subjected to 2-fold gradient dilution with corresponding solvents on a 96-microwell plate (V-bottom) to obtain 100× working solutions (Well 1 to Well 7) in sequence. Among them, the concentrations of the compound were 400 μg/mL, 200 μg/mL, 100 μg/mL, 50 μg/mL, 25 μg/mL, 12.5 μg/mL, 6.25 μg/mL, and 3.125 μg/mL. 100% DMSO was used as growth control (Well 8). As such, the compound motherplate was obtained. Two days before the experiment, anaerobic bacteria (Propionibacterium acnes) stored in a cryogenic tube at −80° C. were scribed on an MBA (Brucella Agar+5% (v/v) defibrillated sheep blood+[…] Hemin+1 μg/mLVitamin K1) plate. The anaerobic bacteria were placed in a 35+/−2° C. anaerobic incubator for 42-48 hours of cultivation. On the day of the experiment, the plate was taken out, clones were picked from the plate and suspended in physiological saline. Then, the turbidity of the bacterial suspension (containing 1.0-2.0×10^8 CFU/mL) was adjusted to OD600=0.2 by a turbidity meter. Then, the adjusted bacterial suspension was diluted to an appropriate concentration with the assay culture medium: about 5×10^5 CFU/mL for aerobic bacteria, and about 1×10^6 CFU/mL for anaerobic bacteria. As such, the inoculating solution was obtained. […] Therefore, the final assay concentrations of the compound were 4 μg/mL, 2 μg/mL, 1 μg/mL, 0.5 μg/mL, 0.25 μg/mL, 0.125 μg/mL, 0.06 μg/mL and 0.03 μg/mL. The total volume of each well on the assay plate was 200 μL: containing 1% DMSO, about 5×10^5 CFU/mL of aerobic bacteria and about 1×10^6 CFU/mL of anaerobic bacteria. All assay plates for aerobic bacteria were aerobically cultured at 35+/−2° C. for 16 to 20 hours, and all assay plates for anaerobic bacteria were anaerobically cultured in an anaerobic incubator at 35+/−2° C. for 48 hours. Note: for anaerobic bacteria, both the preparation of bacterial solution in step 2 and the inoculation of bacterial solution in step 3 were operated in an anaerobic workstation.

[2] = system: Staphylococcus epidermidis ATCC 12228; experiment: Minimum inhibitory concentration (MIC) assay, Staphylococcus epidermidis ATCC 12228; assay type: cell-based; details: ATCC12228, aerobic culture 35+/-2°C, 16 to 20 hours, read with naked eyes
Experimental: On the day of the experiment, the compound in the flask was dissolved in 100% DMSO until the concentration of mother liquor was 0.4 mg/mL. If the mother liquor was not used on the same day, it was stored at −80° C. for future use.
The compound mother liquor and standard antibiotics were subjected to 2-fold gradient dilution with corresponding solvents on a 96-microwell plate (V-bottom) to obtain 100× working solutions (Well 1 to Well 7) in sequence. Among them, the concentrations of the compound were 400 μg/mL, 200 μg/mL, 100 μg/mL, 50 μg/mL, 25 μg/mL, 12.5 μg/mL, 6.25 μg/mL, and 3.125 μg/mL. 100% DMSO was used as growth control (Well 8). As such, the compound motherplate was obtained.
One day before the experiment, aerobic bacteria (Staphylococcus epidermidis) stored in a cryogenic tube at −80° C. were scribed on an MHA (Cation-adjusted Mueller-Hinton agar) plate. The aerobic bacteria were placed in a 35+/−2° C. incubator for 18-24 hours of aerobic cultivation.
On the day of the experiment, the plate was taken out, clones were picked from the plate and suspended in physiological saline. Then, the turbidity of the bacterial suspension (containing 1.0-2.0×10^8 CFU/mL) was adjusted to OD600=0.2 by a turbidity meter. Then, the adjusted bacterial suspension was diluted to an appropriate concentration with the assay culture medium: about 5×10^5 CFU/mL for aerobic bacteria, and about 1×10^6 CFU/mL for anaerobic bacteria. As such, the inoculating solution was obtained.
2 μl of 2-fold series dilution of 100× high-concentration working solution was transferred from a compound mother plate (prepared in step 1) to a round-bottom 96-well plate, and then 198 μL of bacterial inoculating solution (prepared in step 2) was added to each well to obtain an MIC assay plate. Therefore, the final assay concentrations of the compound were 4 μg/mL, 2 μg/mL, 1 μg/mL, 0.5 μg/mL, 0.25 μg/mL, 0.125 μg/mL, 0.06 μg/mL and 0.03 μg/mL. The total volume of each well on the assay plate was 200 μL: containing 1% DMSO, about 5×10^5 CFU/mL of aerobic bacteria and about 1×10^6 CFU/mL of anaerobic bacteria.
All assay plates for aerobic bacteria were aerobically cultured at 35+/−2° C. for 16 to 20 hours, and all assay plates for anaerobic bacteria were anaerobically cultured in an anaerobic incubator at 35+/−2° C. for 48 hours.

- MIC [1]: 0.03 µg/mL (≈ 0.0766 µM)
- MIC [2]: 0.06 µg/mL (≈ 0.153 µM)
Structure (SMILES): CN(C)c1cc2c(cn1)-c1ccc3c(=O)c(C(=O)O)cn(C4CC4)c3c1COC2 [Compound 6]
